The values below come from ChEMBL document CHEMBL5463729, “Data for DCP probe BAY 1753011” (2023).

Test [1] deals with Tyrosine-protein kinase TXK (Homo sapiens) (UniProt P42681). The experiment in a line: Inhibition of Txk(h) at 10.0 µM in the Eurofins Kinase panel. The conditions noted are these: Compound concentration 10.0 uM.
Test [2] addresses 5-hydroxytryptamine receptor 2A (Homo sapiens) (UniProt P28223). The following applies: Compound concentration 10.0 uM.
In test [3] the target is Glycogen synthase kinase-3 alpha (Homo sapiens) (UniProt P49840). The experiment in a line: Inhibition of GSK3alpha(h) at 10.0 µM in the Eurofins Kinase panel. The following applies: Compound concentration 10.0 uM.
Test [4] has as its target Cannabinoid receptor 1 (Homo sapiens) (UniProt P21554). Put plainly: Inhibition of Cannabinoid CB1 at compound concentration of 10.0 uM in the Eurofins-Panlabs radioligand binding assay (Eurofins_assay_217050). The arrangement: ligand concentration 2 nM. The following applies: Compound concentration 10.0 uM.
Test [5] concerns the target Tyrosine-protein kinase Fgr (Homo sapiens) (UniProt P09769). The experiment in a line: Inhibition of Fgr(h) at 10.0 µM in the Eurofins Kinase panel. The following applies: Compound concentration 10.0 uM.
In test [6] the target is Platelet-derived growth factor receptor alpha (Homo sapiens) (UniProt P16234). Put plainly: Inhibition of PDGFRalpha(h) at 10.0 µM in the Eurofins Kinase panel. The following applies: Compound concentration 10.0 uM.
Test [7] has as its target MAP kinase-interacting serine/threonine-protein kinase 1 (Homo sapiens) (UniProt Q9BUB5). Put plainly: Inhibition of Mnk1(h) at 10.0 µM in the Eurofins Kinase panel. The following applies: Compound concentration 10.0 uM.
In test [8] the target is Aldo-keto reductase family 1 member B1 (Rattus norvegicus) (UniProt P07943). The experiment in a line: Inhibition of Aldose Reductase at compound concentration of 10.0 uM in the Eurofins-Panlabs enzyme assay (Eurofins_assay_107000). The arrangement: substrate with concentration. The following applies: Compound concentration 10.0 uM.
The target of test [9] is 5-hydroxytryptamine receptor 1B (Homo sapiens) (UniProt P28222). Put plainly: Inhibition of Serotonin (5-Hydroxytryptamine) 5-HT1B at 10 µM in the Eurofins-Panlabs radioligand binding assay (Eurofins_assay_271200). The following applies: Compound concentration 10.0 uM.
For the next test, the species on record is Rattus norvegicus. Put plainly: Inhibition of Glycine, Strychnine-Sensitive at 10 µM in the Eurofins-Panlabs radioligand binding assay (Eurofins_assay_239000). The conditions noted are these: Compound concentration 10.0 uM.
Test [10] deals with SRSF protein kinase 2 (Homo sapiens) (UniProt P78362). Put plainly: Inhibition of SRPK2(h) at 10.0 µM in the Eurofins Kinase panel. The following applies: Compound concentration 10.0 uM.
For a further test, the species on record is Sus scrofa. The experiment in a line: Inhibition of ATPase, Na+/K+, Heart at compound concentration of 10.0 uM in the Eurofins-Panlabs enzyme assay (Eurofins_assay_107710). The following applies: Compound concentration 10.0 uM. The arrangement: substrate with concentration.
In the next test the target is Vasopressin V1a receptor (Homo sapiens, UniProt P37288). Put plainly: Inhibition of Vasopressin V1A at compound concentration of 10.0 uM in the Eurofins-Panlabs radioligand binding assay (Eurofins_assay_287530). Also on record: ligand concentration 0.03 nM, non-specific ligand with concentration 1 uM (Arg8)-Vasopressin, incubation time 2 h, incubation temperature 25 C.

Test [11] deals with Adenosine Transporter (Cavia porcellus) (UniProt H0V4R7+H0UUG1+H0V3Z5). The experiment in a line: Inhibition of Transporter, Adenosine at compound concentration of 10.0 uM in the Eurofins-Panlabs radioligand binding assay (Eurofins_assay_202000). It is filed as protein assay. Also on record: ligand concentration 0.5 nM, non-specific ligand with concentration 5 uM Nitrobenzylthioinosine, incubation time 30 min, incubation temperature 25 C. The following applies: Compound concentration 10.0 uM.

Test [12] has as its target Tyrosine-protein kinase SYK (Homo sapiens) (UniProt P43405). The experiment in a line: Inhibition of Syk(h) at 10.0 µM in the Eurofins Kinase panel. The conditions noted are these: Compound concentration 10.0 uM.
For test [13], the target named is 5-hydroxytryptamine receptor 4 (Homo sapiens) (UniProt Q13639). The experiment in a line: Inhibition of Serotonin (5-Hydroxytryptamine) 5-HT4 at 10 µM in the Eurofins-Panlabs radioligand binding assay (Eurofins_assay_272000). The following applies: Cavia porcellus; Compound concentration 10.0 uM.
The target of test [14] is Mitogen-activated protein kinase 14 (Homo sapiens) (UniProt Q16539). The experiment in a line: Inhibition of Protein Serine/Threonine Kinase, MAPK14 (p38α) at 10 µM in the Eurofins-Panlabs enzyme assay (Eurofins_assay_176610). Also on record: substrate with concentration. The conditions noted are these: Compound concentration 10.0 uM.
The target in test [15] is Melanocortin receptor 3 (Homo sapiens) (UniProt P41968). Put plainly: Inhibition of Melanocortin MC3 at 10 µM in the Eurofins-Panlabs radioligand binding assay (Eurofins_assay_251300). The arrangement: ligand concentration 0.035 nM. The following applies: Compound concentration 10.0 uM.
For test [16], the target named is Neutrophil elastase (Homo sapiens) (UniProt P08246). Put plainly: Inhibition of Peptidase, ELA2 (Neutrophil Elastase 2) at 10 µM in the Eurofins-Panlabs enzyme assay (Eurofins_assay_166010). The following applies: Compound concentration 10.0 uM.
The target in test [17] is C-X-C chemokine receptor type 2 (Homo sapiens) (UniProt P25025). The experiment in a line: Inhibition of Chemokine CXCR2 (IL-8RB) at 10 µM in the Eurofins-Panlabs radioligand binding assay (Eurofins_assay_244500). The following applies: Compound concentration 10.0 uM.
In test [18] the target is Prostaglandin E2 receptor EP4 subtype (Homo sapiens) (UniProt P35408). Put plainly: Inhibition of Prostanoid EP4 at 10 µM in the Eurofins-Panlabs radioligand binding assay (Eurofins_assay_268420). Also on record: ligand concentration 1 nM. The following applies: Compound concentration 10.0 uM.
Test [19] concerns the target Glutamate receptor ionotropic, kainate (Rattus norvegicus) (UniProt P22756+Q01812+P42260+P42264+Q63273). Put plainly: Inhibition of Glutamate, Kainate at 10 µM in the Eurofins-Panlabs radioligand binding assay (Eurofins_assay_232700). The conditions noted are these: Compound concentration 10.0 uM.
The target of test [20] is C-C chemokine receptor type 5 (Homo sapiens) (UniProt P51681). Put plainly: Inhibition of Chemokine CCR5 at 10 µM in the Eurofins-Panlabs radioligand binding assay (Eurofins_assay_217720). The following applies: Compound concentration 10.0 uM.
Test [21] addresses Neuropeptide Y receptor type 1 (Homo sapiens) (UniProt P25929). The experiment in a line: Inhibition of Neuropeptide Y Y1 at 10 µM in the Eurofins-Panlabs radioligand binding assay (Eurofins_assay_257010). The conditions noted are these: Compound concentration 10.0 uM.
The target in test [22] is Cysteinyl leukotriene receptor 1 (Homo sapiens) (UniProt Q9Y271). The experiment in a line: Inhibition of Leukotriene, Cysteinyl CysLT1 at 10 µM in the Eurofins-Panlabs radioligand binding assay (Eurofins_assay_250460). The arrangement: ligand concentration 0.3 nM, non-specific ligand with concentration 0.3 µM Leukotriene D4, incubation time 30 min, incubation temperature 25 °C. The following applies: Compound concentration 10.0 uM.

In test [23] the target is Protein kinase C alpha type (Homo sapiens) (UniProt P17252). Put plainly: Inhibition of Protein Serine/Threonine Kinase, PRKCA (PKCα) at 10 µM in the Eurofins-Panlabs enzyme assay (Eurofins_assay_180010). The arrangement: substrate with concentration Histone, incubation time 10 min, incubation temperature 25 °C. The conditions noted are these: Compound concentration 10.0 uM.

Test [24] has as its target Dual specificity protein kinase CLK4 (Homo sapiens) (UniProt Q9HAZ1). Put plainly: Inhibition of CLK4(h) at 10.0 µM in the Eurofins Kinase panel. The following applies: Compound concentration 10.0 uM.
The target of test [25] is T1, 5-hydroxytryptamine receptor 3A (Homo sapiens) (UniProt P46098).
T1 sequence (whole entry): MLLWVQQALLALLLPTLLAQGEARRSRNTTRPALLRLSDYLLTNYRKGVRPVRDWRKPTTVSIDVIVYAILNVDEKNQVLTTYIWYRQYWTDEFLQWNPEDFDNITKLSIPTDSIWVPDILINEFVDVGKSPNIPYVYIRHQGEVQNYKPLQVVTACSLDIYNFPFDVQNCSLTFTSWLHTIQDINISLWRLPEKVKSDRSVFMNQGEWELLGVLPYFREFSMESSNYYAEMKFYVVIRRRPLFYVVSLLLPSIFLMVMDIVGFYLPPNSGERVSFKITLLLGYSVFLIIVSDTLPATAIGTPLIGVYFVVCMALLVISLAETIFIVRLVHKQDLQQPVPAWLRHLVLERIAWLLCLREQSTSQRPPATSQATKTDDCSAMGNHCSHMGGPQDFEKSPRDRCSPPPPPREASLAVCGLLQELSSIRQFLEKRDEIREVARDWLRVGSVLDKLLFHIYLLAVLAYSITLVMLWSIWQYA
Put plainly: Inhibition of Serotonin (5-Hydroxytryptamine) 5-HT3 at 10 µM in the Eurofins-Panlabs radioligand binding assay (Eurofins_assay_271910). The arrangement: ligand concentration 0.69 nM. The conditions noted are these: Compound concentration 10.0 uM.

Each structure is given as a SMILES string. pIC50, pKi: −log10 of the molar value.

Chain of Vasopressin V1a receptor (P37288 whole entry): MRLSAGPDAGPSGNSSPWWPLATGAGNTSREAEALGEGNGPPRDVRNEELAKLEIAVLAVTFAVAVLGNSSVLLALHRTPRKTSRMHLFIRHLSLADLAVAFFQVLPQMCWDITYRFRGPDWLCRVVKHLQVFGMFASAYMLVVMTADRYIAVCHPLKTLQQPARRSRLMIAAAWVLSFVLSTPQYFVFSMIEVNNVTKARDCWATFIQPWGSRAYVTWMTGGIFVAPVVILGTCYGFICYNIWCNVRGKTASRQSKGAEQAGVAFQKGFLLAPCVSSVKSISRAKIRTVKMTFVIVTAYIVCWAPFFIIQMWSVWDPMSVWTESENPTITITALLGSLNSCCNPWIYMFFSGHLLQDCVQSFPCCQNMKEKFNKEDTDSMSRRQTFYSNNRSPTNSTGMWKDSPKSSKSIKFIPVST
Chain of Tyrosine-protein kinase Fgr (Homo sapiens) (P09769 2-529 limits assumed): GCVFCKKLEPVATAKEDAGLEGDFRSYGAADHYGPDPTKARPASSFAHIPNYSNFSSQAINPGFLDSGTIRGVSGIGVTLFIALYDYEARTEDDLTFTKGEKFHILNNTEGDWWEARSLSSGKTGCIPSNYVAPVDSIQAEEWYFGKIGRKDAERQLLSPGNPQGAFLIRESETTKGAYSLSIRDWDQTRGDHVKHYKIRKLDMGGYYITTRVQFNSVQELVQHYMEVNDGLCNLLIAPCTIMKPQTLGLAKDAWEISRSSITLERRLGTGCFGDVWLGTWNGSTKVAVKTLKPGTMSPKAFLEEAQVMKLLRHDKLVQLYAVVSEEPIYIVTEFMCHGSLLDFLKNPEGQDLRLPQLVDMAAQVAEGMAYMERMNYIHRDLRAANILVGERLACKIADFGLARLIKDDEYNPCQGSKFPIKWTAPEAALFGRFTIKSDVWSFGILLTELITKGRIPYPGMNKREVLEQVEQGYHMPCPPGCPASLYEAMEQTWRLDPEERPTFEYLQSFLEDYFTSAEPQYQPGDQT
Chain of Mitogen-activated protein kinase 14 (Homo sapiens) (Q16539 whole entry): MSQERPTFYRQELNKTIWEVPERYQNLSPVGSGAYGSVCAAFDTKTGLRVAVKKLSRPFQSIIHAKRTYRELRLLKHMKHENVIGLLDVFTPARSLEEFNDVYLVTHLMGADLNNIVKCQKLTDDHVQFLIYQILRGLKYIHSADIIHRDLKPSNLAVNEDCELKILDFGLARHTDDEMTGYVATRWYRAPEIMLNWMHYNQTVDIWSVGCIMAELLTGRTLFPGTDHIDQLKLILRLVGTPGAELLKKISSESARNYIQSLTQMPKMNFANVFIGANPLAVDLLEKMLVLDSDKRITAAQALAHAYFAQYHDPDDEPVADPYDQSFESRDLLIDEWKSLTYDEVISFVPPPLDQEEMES
Chain of Glycogen synthase kinase-3 alpha (Homo sapiens) (P49840 2-483 limits assumed): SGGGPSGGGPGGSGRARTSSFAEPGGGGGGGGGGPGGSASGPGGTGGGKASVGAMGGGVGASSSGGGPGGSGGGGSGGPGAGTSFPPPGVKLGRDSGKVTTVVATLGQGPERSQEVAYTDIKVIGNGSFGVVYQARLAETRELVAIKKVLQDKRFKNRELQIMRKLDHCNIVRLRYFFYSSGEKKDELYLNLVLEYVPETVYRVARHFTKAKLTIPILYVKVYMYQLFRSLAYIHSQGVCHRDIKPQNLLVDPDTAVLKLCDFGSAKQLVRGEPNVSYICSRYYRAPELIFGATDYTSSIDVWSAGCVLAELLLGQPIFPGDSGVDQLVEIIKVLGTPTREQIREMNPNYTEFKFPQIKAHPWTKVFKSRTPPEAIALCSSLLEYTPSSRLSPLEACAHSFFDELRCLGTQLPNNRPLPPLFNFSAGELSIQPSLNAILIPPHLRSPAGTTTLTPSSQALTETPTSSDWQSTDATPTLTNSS
Chain of Tyrosine-protein kinase TXK (Homo sapiens) (P42681 whole entry): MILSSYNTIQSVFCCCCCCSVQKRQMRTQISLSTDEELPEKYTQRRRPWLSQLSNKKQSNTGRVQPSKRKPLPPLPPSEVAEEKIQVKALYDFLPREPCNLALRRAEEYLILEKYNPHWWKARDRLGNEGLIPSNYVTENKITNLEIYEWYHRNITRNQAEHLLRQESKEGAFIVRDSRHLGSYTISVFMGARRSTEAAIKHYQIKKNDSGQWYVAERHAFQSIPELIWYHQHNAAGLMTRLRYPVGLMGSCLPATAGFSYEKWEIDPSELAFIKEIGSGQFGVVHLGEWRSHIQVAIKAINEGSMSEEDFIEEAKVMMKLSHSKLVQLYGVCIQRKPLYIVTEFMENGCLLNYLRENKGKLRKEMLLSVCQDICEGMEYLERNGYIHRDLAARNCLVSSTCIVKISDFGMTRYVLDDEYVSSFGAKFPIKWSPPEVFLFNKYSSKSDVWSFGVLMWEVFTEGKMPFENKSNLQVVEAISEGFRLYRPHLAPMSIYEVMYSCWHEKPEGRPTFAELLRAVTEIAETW
Chain of Cannabinoid receptor 1 (Homo sapiens) (P21554 whole entry): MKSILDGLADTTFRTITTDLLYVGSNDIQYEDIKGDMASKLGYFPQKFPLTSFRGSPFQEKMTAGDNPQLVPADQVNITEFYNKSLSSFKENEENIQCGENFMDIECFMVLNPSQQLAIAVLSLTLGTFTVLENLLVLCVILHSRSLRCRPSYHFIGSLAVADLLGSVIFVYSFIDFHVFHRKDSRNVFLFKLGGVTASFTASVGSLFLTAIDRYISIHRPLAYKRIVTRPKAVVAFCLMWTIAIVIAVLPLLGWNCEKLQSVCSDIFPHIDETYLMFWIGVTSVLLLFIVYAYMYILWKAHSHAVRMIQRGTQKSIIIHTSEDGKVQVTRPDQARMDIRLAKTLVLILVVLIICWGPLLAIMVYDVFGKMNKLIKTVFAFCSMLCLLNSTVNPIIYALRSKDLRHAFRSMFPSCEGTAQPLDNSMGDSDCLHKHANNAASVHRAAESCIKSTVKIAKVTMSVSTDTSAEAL
Chain of MAP kinase-interacting serine/threonine-protein kinase 1 (Homo sapiens) (Q9BUB5 whole entry, looked up): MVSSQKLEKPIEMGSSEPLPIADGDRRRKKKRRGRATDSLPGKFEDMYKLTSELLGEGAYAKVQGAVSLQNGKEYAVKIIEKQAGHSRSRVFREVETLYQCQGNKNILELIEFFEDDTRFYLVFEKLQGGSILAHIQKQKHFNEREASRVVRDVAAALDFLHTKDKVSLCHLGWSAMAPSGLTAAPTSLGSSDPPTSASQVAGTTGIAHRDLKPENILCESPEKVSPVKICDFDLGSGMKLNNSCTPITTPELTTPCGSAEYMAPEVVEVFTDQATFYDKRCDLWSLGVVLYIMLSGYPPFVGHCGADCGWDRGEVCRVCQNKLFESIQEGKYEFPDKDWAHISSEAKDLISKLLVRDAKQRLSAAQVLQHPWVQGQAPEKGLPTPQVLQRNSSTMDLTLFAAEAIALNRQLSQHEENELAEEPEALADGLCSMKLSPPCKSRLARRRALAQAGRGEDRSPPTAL
Chain of Neutrophil elastase (Homo sapiens) (P08246 whole entry): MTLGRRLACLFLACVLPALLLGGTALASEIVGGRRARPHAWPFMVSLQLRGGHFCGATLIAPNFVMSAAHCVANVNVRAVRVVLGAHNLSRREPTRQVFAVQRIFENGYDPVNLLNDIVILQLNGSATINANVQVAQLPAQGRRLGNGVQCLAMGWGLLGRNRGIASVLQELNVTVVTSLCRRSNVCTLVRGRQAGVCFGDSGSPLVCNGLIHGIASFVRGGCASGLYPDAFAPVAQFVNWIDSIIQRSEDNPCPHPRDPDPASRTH
Chain of 5-hydroxytryptamine receptor 4 (Homo sapiens) (Q13639 whole entry): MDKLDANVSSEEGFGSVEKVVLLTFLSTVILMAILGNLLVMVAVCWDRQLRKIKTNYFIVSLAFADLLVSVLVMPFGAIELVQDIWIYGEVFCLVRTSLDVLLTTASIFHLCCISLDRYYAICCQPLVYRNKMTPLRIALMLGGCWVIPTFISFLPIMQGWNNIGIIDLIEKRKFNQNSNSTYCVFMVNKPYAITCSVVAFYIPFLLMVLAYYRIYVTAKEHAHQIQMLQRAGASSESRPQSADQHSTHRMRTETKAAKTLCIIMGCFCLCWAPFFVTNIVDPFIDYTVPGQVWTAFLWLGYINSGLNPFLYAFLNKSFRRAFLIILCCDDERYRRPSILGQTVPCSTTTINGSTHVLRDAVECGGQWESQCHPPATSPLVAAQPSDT
Chain of Neuropeptide Y receptor type 1 (Homo sapiens) (P25929 whole entry): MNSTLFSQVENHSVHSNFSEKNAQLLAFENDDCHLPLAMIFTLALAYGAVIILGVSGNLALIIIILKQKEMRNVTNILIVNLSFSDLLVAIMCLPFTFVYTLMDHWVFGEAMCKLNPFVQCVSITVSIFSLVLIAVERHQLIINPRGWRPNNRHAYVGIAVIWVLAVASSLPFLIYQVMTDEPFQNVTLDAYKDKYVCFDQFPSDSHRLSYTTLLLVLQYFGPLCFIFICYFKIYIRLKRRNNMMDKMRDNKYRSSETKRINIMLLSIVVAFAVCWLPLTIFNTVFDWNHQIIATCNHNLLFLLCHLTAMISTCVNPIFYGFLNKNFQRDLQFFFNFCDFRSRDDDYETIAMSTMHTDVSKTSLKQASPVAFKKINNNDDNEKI

For orientation: inhibition means the change of the read-out against control, counted positive when it falls. With `O=c1n(Cc2cncn2-c2cccc(Cl)c2)nc(-c2ccc(Cl)cc2)n1C[C@H](O)C(F)(F)F`, the inhibition was -5.05% in test [1]; -2% in [2]; -1.7% in [3]; 19% in [4]; -7.12% in test [5]; -5.3% in [6]. The inhibition in test [7] is -9.85%.

The term pIC50 denotes the negative decadic logarithm of the IC50, by convention in mol/L. Low values mean a large IC50, high ones a small IC50. For orientation: pKi means −log10 of the Ki, conventionally taken in molar units. Low values mean a large Ki, high ones a small Ki. On to `C[C@H](O)c1nc(Cn2nc(-c3ccc(Cl)cc3)n(C[C@H](O)C(F)(F)F)c2=O)nn1-c1cccc(Cl)c1` [PECAVAPTAN], for which the inhibition was 6% in test [8]; -5% in test [9]; 12% in the test listed under Rattus norvegicus; -4.81% in test [10]; 0% in the test filed under Sus scrofa; 21% in test [11]. The inhibition is -8.56% in test [12]; 19% in test [13]; -1% in [14]; 6% in [15]; 1% in [16]; -6% in test [17]. For the same compound, the inhibition in test [18] was 16%; in test [19], -4%; in test [20] it was -3%; in [21] it was 11%; in test [22] it was 5%; in test [23] it was -2%. In addition, the inhibition in [24] was 1.42%; in test [25] it was -2%. This compound also gave a pIC50 at Vasopressin V1a receptor of 8.17. On Vasopressin V1a receptor, this compound had a negative-log Ki (pKi) of 8.88.
